Measured values reported in patent US20260041744A1, “Methods for Treating Pompe Disease” (Amicus Therapeutics, Inc., priority 2022, published 2026).
Entries after “also recorded” stand apart in the source; their conditions may differ.

What was measured:
[1] = test system: adults with Pompe disease; experiment: Study ATB200-02: sitting % predicted FVC
Method: Four cohorts of patients with Pompe disease were enrolled in the ATB200-02 study: • Cohort 1: ERT-experienced, aged 18-65 years, with 2-6 years prior ERT with 20 mg/kg alglucosidase alfa every 2 weeks (n=11) • Cohort 2: Non-ambulatory ERT-experienced, aged 18-65 years, with ≥2 years prior ERT with 20 mg/kg alglucosidase alfa every 2 weeks (n=6)· • Cohort 3: ERT-naïve, aged 18-65 years (n=6). • Cohort 4: ERT-experienced, aged 18-75 years, with ≥7 years prior ERT with 20 mg/kg alglucosidase alfa every 2 weeks (n=6)
The change from baseline (CFBL) in 6MWD, % predicted sitting FVC, manual muscle test (MMT) and biomarkers—urine glucose tetrasaccharide (Hex4) and serum creatine kinase (CK)—were assessed at regular intervals. Data with up to 36 months of follow-up in ERT-experienced and ERT-naïve patients is provided herein. […] Due to the staggered timing of patient enrollment, the number of patients with data currently available decreases at later time-points in this ongoing study.

adult subjects with LOPD [2] = experiment: Study ATB200-07 (OLE of PROPEL): 6MWD and % predicted 6MWD; format: in vivo, human; conditions: Study ATB200-03/07, excluding the outlier
Text: (§1) The study doses and schedule are maintained from Study ATB200-03.
(§2) Efficacy data are presented in this summary as change from the baseline of Study ATB200-03 (OLE-ES Population).

Gaa KO mice [3] = experiment: Muscle fiber size (minimum Feret's diameter) in quadriceps, 12 biweekly injections; format: in vivo, mouse; conditions: 20 mg/kg, 12 biweekly bolus injections
Method: FIG. 78 is a graph showing the effect of long-term cipaglucosidase alfa administration (20 mg/kg, 12 biweekly bolus injections) versus alglucosidase alfa on muscle fiber size by mean minimum fiber diameter (FD) in Gaa KO mouse quadriceps.
Gaa mice, like patients with Pompe disease, show a decrease in muscle fiber size as a consequence of muscle atrophy.

CIMPR [4] = target: T1, CIMPR (Homo sapiens, UniProt P11717); experiment: CIMPR plate binding assay
T1 sequence (P11717 41-2491, species assumed): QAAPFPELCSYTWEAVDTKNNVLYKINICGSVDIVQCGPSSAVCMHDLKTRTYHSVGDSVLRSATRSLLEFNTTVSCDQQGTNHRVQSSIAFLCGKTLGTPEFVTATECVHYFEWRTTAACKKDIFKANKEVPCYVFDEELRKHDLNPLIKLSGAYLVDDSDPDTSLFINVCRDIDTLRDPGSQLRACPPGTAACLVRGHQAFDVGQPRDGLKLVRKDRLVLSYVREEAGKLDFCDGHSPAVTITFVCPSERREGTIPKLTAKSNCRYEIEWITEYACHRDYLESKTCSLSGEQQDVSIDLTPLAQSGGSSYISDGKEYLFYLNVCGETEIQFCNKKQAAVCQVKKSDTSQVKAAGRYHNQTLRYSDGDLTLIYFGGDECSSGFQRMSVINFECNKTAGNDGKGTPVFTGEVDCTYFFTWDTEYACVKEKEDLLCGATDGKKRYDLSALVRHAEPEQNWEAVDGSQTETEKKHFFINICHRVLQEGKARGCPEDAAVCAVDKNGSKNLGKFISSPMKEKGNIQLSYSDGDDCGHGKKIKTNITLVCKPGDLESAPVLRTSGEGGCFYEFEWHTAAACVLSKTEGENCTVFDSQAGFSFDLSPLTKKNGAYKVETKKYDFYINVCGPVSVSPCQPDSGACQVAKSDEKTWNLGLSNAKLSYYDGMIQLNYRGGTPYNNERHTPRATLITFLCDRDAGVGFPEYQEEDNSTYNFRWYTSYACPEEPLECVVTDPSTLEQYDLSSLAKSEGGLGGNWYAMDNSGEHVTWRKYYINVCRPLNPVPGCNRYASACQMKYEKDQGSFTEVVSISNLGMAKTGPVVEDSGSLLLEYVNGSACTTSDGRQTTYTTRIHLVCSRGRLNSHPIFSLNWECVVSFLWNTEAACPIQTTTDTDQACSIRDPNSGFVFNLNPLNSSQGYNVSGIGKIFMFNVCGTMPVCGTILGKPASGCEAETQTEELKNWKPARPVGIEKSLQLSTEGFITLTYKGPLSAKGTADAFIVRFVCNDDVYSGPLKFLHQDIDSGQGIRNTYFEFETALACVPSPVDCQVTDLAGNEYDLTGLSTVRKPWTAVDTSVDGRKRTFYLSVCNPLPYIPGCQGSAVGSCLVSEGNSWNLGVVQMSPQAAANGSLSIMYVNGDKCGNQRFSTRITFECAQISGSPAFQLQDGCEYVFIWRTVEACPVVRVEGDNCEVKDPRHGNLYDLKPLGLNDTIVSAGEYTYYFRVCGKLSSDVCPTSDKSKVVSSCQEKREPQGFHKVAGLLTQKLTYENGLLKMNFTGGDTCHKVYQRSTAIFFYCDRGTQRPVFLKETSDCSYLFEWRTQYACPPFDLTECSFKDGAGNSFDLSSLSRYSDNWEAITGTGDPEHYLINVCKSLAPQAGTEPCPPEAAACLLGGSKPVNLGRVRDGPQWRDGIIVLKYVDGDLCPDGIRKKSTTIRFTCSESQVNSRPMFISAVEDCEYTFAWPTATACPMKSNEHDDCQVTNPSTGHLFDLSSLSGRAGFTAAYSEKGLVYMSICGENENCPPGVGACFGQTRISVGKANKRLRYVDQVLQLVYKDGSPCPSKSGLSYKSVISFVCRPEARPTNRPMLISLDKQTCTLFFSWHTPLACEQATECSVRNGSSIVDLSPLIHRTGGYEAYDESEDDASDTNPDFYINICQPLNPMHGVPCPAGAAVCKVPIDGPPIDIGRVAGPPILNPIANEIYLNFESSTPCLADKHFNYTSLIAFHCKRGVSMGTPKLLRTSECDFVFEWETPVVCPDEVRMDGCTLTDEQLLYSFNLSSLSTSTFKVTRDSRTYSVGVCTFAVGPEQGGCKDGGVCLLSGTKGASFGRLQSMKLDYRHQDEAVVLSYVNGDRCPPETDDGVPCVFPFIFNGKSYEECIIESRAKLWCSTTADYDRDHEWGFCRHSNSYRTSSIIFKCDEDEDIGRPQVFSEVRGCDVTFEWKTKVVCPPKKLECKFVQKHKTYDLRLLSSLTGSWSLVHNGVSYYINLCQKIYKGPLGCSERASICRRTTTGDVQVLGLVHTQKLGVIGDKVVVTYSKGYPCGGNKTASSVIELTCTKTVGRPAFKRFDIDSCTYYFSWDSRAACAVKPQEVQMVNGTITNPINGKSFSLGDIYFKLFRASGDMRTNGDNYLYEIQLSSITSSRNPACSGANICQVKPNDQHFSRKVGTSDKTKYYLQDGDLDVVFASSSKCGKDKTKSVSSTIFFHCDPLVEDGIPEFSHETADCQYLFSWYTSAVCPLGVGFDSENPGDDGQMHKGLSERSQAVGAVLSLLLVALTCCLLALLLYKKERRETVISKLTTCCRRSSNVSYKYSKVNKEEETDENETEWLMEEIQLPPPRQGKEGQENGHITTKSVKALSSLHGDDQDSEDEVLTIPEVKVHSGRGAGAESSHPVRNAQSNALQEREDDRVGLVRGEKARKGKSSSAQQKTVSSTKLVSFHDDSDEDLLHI
Method: In addition to having a greater percentage of rhGAA that can bind to the CIMPR, it is important to understand the quality of that interaction. LUMIZYME® and ATB200 receptor binding was determined using a CIMPR plate binding assay. Briefly, CIMPR-coated plates were used to capture GAA. Varying concentrations of rhGAA were applied to the immobilized receptor and unbound rhGAA was washed off. The amount of remaining rhGAA was determined by GAA activity.
N-glycan analysis via MALDI-TOF mass spectrometry confirmed that on average each ATB200 molecule contains at least one natural bis-M6P N-glycan structure.

ATB200 = ATB200 (Homo sapiens, UniProt P10253); experiment: Thermostability assay using SYPRO Orange
animals = conditions: in vivo
Text: It is not known whether miglustat is secreted in breast milk. A risk to newborns/breastfed infants cannot be ruled out. The developmental and health benefits of breastfeeding should be considered, as well as the clinical need for the mother to receive co-administration therapy with cipaglucosidase alfa and miglustat, and any adverse reactions experienced by the breastfed child potentially related to the co-administration of cipaglucosidase alfa and miglustat or the underlying maternal condition. In some embodiments, breastfeeding is not allowed while taking cipaglucosidase alfa and miglustat. There are no clinical data on the effects of co-administration therapy of cipaglucosidase alfa and miglustat on fertility.

adult subjects with LOPD [5] = experiment: Study ATB200-07 (OLE): sitting % predicted FVC; format: in vivo, human; conditions: Study ATB200-03/07, excluding the outlier
Text: as §1, §2

[6] = human, in vivo
Text: Blood sampling for plasma GAA protein and miglustat concentrations were taken for cohort 1 (ERT-experienced) and cohort 3 (ERT-naïve) only. To prevent any undue burden on patients, blood sampling for PK was not performed for non-ambulatory patients (cohort 2) and, due to similarity to cohort 1, those in cohort 4.

CIMPR [7] = target: T1, CIMPR; experiment: CIMPR Overlay Assay (far-western blot); format: binding
Method: The CIMPR Overlay Assay is a variation on a far-western blot where proteins are separated on an SDS-PAGE, transferred to a nitrocellulose membrane, and incubated with purified CIMPR in the place of a primary antibody as in a conventional western blot. Binding of CIMPR to M6P-containing glycans on rhGAA proteins is then visualized by an anti-CIMPR antibody.

[8] = test system: Pompe patient fibroblasts; experiment: Cellular uptake into Pompe patient fibroblasts (20 nM rhGAA, 18-hr); format: cell-based, human
Method: The relative cellular uptake into Pompe patient fibroblasts of dephosphorylated cipaglucosidase alfa compared to mock-treated cipaglucosidase alfa and mock-treated alglucosidase alfa was assessed. Comparisons at a concentration of 20 nM of rhGAA was used to mimic the interstitial concentration of cipaglucosidase alfa that crosses into tissues, as shown in FIG. 77A. After an 18-hr incubation for enzyme uptake, cells were washed for 2 hours, harvested, lysed, and then processed for GAA activity and western blot analysis. Internalized GAA measured by 4MU-a-Glucoside hydrolysis and was graphed relative to total cellular protein and the results appear in FIG. 77B.
However, cell uptake of PAP-treated cipaglucosidase alfa is abolished.

[9] = test system: normal and Pompe fibroblast cell lines; experiment: Cellular uptake of rhGAA into fibroblasts (16-hr incubation, internalized GAA by 4MU-α-Glucoside hydrolysis); format: cell-based, human
Method: The relative cellular uptake of ATB200 and LUMIZYME® rhGAA were compared using normal and Pompe fibroblast cell lines. Comparisons involved 5-100 nM of ATB200 according to the disclosure with 10-500 nM conventional rhGAA product LUMIZYME®. After 16-hr incubation, external rhGAA was inactivated with TRIS base and cells were washed 3-times with PBS prior to harvest. Internalized GAA measured by 4MU-α-Glucoside hydrolysis and was graphed relative to total cellular protein and the results appear in FIGS. 11A-11C.
ATB200 was also shown to be efficiently internalized into cells. […] ATB200 saturates cellular receptors at about 20 nM, while about 250 nM of LUMIZYME® is needed to saturate cellular receptors.

[10] = test system: 4MU-a-Glucoside hydrolysis (GAA activity); experiment: GAA enzyme activity by 4MU-a-Glucoside hydrolysis after PAP treatment; format: biochemical, human; conditions: PAP 18 hours
Method: Removal of phosphoesters mono- and bis-M6P was completed by the enzyme purple acid phosphatase (PAP). PAP hydrolyzes phosphate esters and anhydrides. […] Cipaglucosidase alfa was treated with PAP for 18 hours, and alglucosidase alfa in the same reaction conditions but without PAP addition was used as a mock-treated control. PAP treatment results in complete removal of the bis-M6P peak and nearly all of the mono-M6P peak from the cipaglucosidase alfa LC-FLD chromatogram. Additional peaks are clearly observed in the neutral high mannose glycan region resulting from the removal of phosphates from mono- and bis-phosphorylated high mannose glycans.

Gaa KO mice [11] = experiment: Single fiber analysis (LAMP1/LC3 co-immunofluorescence, white gastrocnemius); format: in vivo, mouse; conditions: single fibers
Text: FIG. 17 depicts co-immunofluorescent staining of LAMP1 (green) (see for example, “B”) and LC3 (red) (see, for example, “A”) in single fibers isolated from the white gastrocnemius of Gaa KO mice treated with a vehicle, alglucosidase alfa, or ATB200. “C” depicts clearance of autophagic debris and absence of enlarged lysosome. A minimum of 30 fibers were examined from each animal.
As a result, a significant portion of muscle fibers analyzed (36-60%) from ATB200-treated mice appeared normal or near-normal.

[12] = Cipaglucosidase alfa pharmacokinetics in ERT-experienced adult patients with LOPD; format: in vivo, human
[13] = test system: adults with Pompe disease; experiment: Study ATB200-02 (20 mg/kg cipaglucosidase alfa IV + 260 mg miglustat): 6MWT (6MWD, % predicted 6MWD); format: in vivo, human;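 note: Open-label Phase I/II trial, ambulatory cohorts only, values are changes from baseline or counts relative to the baseline walk test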
Method: The change from baseline (CFBL) in 6MWD, % predicted sitting FVC, manual muscle test (MMT) and biomarkers—urine glucose tetrasaccharide (Hex4) and serum creatine kinase (CK)—were assessed at regular intervals.
The 4 cohorts in the study are as follows: • Cohort 1: ERT-experienced (2 to 6 years) ambulatory subjects (11 subjects) • Cohort 2: ERT-experienced (≥2 years) non-ambulatory subjects (6 subjects) • Cohort 3: ERT-naïve ambulatory subjects (6 subjects)· • Cohort 4: ERT-experienced (≥7 years) ambulatory subjects (6 subjects)
In Study ATB200-02, motor function was evaluated in all ambulatory subjects (ie, Cohorts 1, 3, and 4) (Table 23, FIGS. 46A-46D).

[14] = ERT-experienced, Study ATB200-02
[15] = ERT-naïve, Study ATB200-02, Cohort 3
[16] = 20 mg/kg in combination with Miglustat 260 mg
[17] = ERT-experienced, Study ATB200-02, Cohort 1 and 4 combined

Substance: ATB200: recombinant human acid α-glucosidase with a high content of N-glycans bearing mono-M6P and bis-M6P, produced from GA-ATB200 CHO cell line
- % Predicted FVC Baseline Mean [1, 14]: 57.4 % predicted
- % Predicted FVC CFBL M12 (W 52) Mean [1, 14]: −1.2 % predicted
- % Predicted FVC CFBL M24 (W 104) Mean [1, 14]: 1.0 % predicted
- % Predicted FVC Baseline Mean [1, 15]: 57.2 % predicted
- % Predicted FVC CFBL M12 (W 52) Mean [1, 15]: 3.2 % predicted
- % Predicted FVC CFBL M24 (W 104) Mean [1, 15]: 4.7 % predicted
- 6MWD Baseline, Mean (adult subjects with LOPD [2]; ERT-experienced): 342.4
- 6MWD CFBL M12 (W 52) Mean (adult subjects with LOPD [2]; ERT-experienced): 16.3
- 6MWD CFBL M24 (W 104) Mean (adult subjects with LOPD [2]; ERT-experienced): 14.2
- 6MWD Baseline, Mean (adult subjects with LOPD [2]; ERT-naïve): 393.6
- 6MWD CFBL M12 (W 52) Mean (adult subjects with LOPD [2]; ERT-naïve): 33.4
- 6MWD CFBL M24 (W 104) Mean (adult subjects with LOPD [2]; ERT-naïve): 38.8
- muscle fiber size vs alglucosidase alfa (Gaa KO mice [3]): significantly improved muscle fiber size
- CIMPR binding compared with LUMIZYME (CIMPR [4]; CIMPR-coated plates): bound to CIMPR significantly better than LUMIZYME®
- Kd (CIMPR [4]; M6P receptor plate binding assays): 2 to 4 nM
- Tm (ATB200; pH 5.2): 67.3 °C
- Tm (ATB200; pH 7.4): 56.2 °C
- Tm (ATB200; pH 7.4 + 10 μM miglustat): 61.6 °C
- Tm (ATB200; pH 7.4 + 30 μM miglustat): 62.9 °C
- Tm (ATB200; pH 7.4 + 100 μM miglustat): 66.0 °C
- excretion in milk (animals): excretion of cipaglucosidase alfa in milk
- fertility, preclinical data (animals): did not reveal any significant adverse reactions
- % Predicted FVC Baseline Mean (adult subjects with LOPD [5]; ERT-experienced): 67.7 % predicted
- % Predicted FVC CFBL M12 (W 52) Mean (adult subjects with LOPD [5]; ERT-experienced): 0.1 % predicted
- % Predicted FVC CFBL M24 (W 104) Mean (adult subjects with LOPD [5]; ERT-experienced): −0.6 % predicted
- % Predicted FVC Baseline Mean (adult subjects with LOPD [5]; ERT-naïve): 80.2 % predicted
- % Predicted FVC CFBL M12 (W 52) Mean (adult subjects with LOPD [5]; ERT-naïve): −4.7 % predicted
- % Predicted FVC CFBL M24 (W 104) Mean (adult subjects with LOPD [5]; ERT-naïve): −4.8 % predicted
- median time of peak signature peptide T09 concentrations (tmax) [6]: approximately 4 hours
- CIMPR binding in overlay assay (CIMPR [7]): binds with high affinity to CIMPR as shown by an intense band
- cellular uptake into Pompe fibroblasts [8]: better cellular uptake compared to alfaglucosidase alfa
- uptake efficiency constant (Kuptake) ([9]; extrapolated from uptake curves): 2-3 nm
- internalization into fibroblasts ([9]; normal and Pompe fibroblast cells): internalized to a greater degree than the conventional rhGAA product LUMIZYME®
- rhGAA concentration that saturates cellular receptors ([9]; normal and Pompe fibroblasts): about 20 nM
- enzyme activity after PAP treatment [10]: retaining the enzyme activity
- Fibers with Normal or Near-normal Appearance (Gaa KO mice [11]): 36-60%
- Lysosome Enlargement (Gaa KO mice [11]): dramatically decreased lysosome size; also recorded: Dramatic size
- AUC0-inf, mean [12, 16]: 1812 µg·h/mL
- Cmax, mean [12, 16]: 345 µg/mL
- AUC0-inf, mean ([12]; 20 mg/kg without Miglustat): 1410 µg·h/mL
- Cmax, mean ([12]; 20 mg/kg without Miglustat): 325 µg/mL
- 6MWD Baseline, Mean [13, 17]: 393.5
- 6MWD CFBL M12 (W 52) Mean [13, 17]: 33.5
- 6MWD CFBL M24 (W 104) Mean [13, 17]: 25.2
- 6MWD Baseline, Mean [13, 15]: 396.0
- 6MWD CFBL M12 (W 52) Mean [13, 15]: 57.0
- 6MWD CFBL M24 (W 104) Mean [13, 15]: 54.4
